From a melting point compilation (Tetko et al.; mined from patent text by program, amines drawn as free bases though some values may be those of a salt)

SMILES | melting point [°C]
Cc1nnc(-c2ccc3occ(-c4cn[nH]c4)c3c2)o1 | 215 to 216
Cc1ncc([N+](=O)[O-])n1CCN(CCCCN(CCn1c([N+](=O)[O-])cnc1C)CCn1c([N+](=O)[O-])cnc1C)CCn1c([N+](=O)[O-])cnc1C | 194 to 196
CCOC(=O)c1cc2ccccc2nc1C(Cl)(Cl)Cl | 66 to 75
O=C1c2sc3ccccc3c2C(=O)c2sc3ccccc3c21 | 315
Clc1ccc(COC(CCCn2ccnc2)c2ccc(Cl)cc2Cl)c(Cl)c1 (centres undefined) | 108
CCS(=O)(=O)C(F)(F)C(Cn1cncn1)(OP(=O)(O)O)c1ccc(F)cc1F (single isomer, unassigned; (+)) | 212 to 214
Cc1cc(C)nc(NC(=O)C(N)Cc2ccccc2)c1 (centres undefined) | 97
CCOP(=O)(OCC)c1cccc2c(P(=O)(OCC)OCC)cccc12 | 169 to 171
COC[C@H]1CN(c2ccc3oc(-c4ccccc4)cc3c2)C(=O)O1 | 178 to 179
O=C(C(=O)c1ccccc1Br)c1ccc(F)cc1 | 72 to 78
CCOC(=O)C(=CNc1ccc(Br)cc1)C(=O)OCC | 100 to 102
Nc1cc(Cl)ccc1C(=O)NCCCc1cccnc1 | 145 to 147
CCC(=O)C1=C(O)CC(c2ccc3c(c2)OCCO3)CC1=O (centres undefined) | 155
CC(=O)c1c(C)[nH]c(-c2ccccc2C)c1NCc1ccc(Cl)cc1 | 167 to 170
C[C@@H](N1CCN(C(=O)c2ccc(F)cc2F)CC1)[C@](O)(Cn1cncn1)c1ccc(F)cc1F | 63 to 65
Cc1[nH]cnc1C(c1ccccc1)c1ccccc1 | 198 to 204
CCOP(=O)(Cc1ccc(NC(=O)CCc2cnoc2-c2ccccc2)cc1)OCC | 139 to 140
O=C1O[C@@H](CO)CN1c1cccc(F)c1 | 106 to 108
CC(Oc1ccc(Oc2ccc(F)cc2)cc1)(C(=O)O)c1ccccc1 (centres undefined) | 113 to 115
CCCc1nn(-c2ccc(C(F)(F)F)cn2)cc1CCCOc1c(C)cccc1CC(=O)O | 134 to 135
O=[N+]([O-])c1c(-c2cc(Cl)cc(Cl)c2)[nH]c2c(Cl)cc(Cl)cc12 | 272 to 273
Cc1cc(CCCCCOc2ccc(-c3nc(C)c(C)s3)cc2)on1 | 96 to 97
CN(C)C(=N)Nc1ccccc1-c1cccc(S(C)(=O)=O)c1 | 113 to 114
O=C(Cc1cccc(O)c1)c1cccc(O)c1 | 151 to 154
Cc1cc(Cl)cc(C(=O)NC(C)C)c1NC(=O)c1cc(C(F)(F)F)nn1-c1ncccc1Cl | 195 to 196
COc1cccc2c(Nc3ccccc3C)nc(Cl)nc12 | 218 to 220

SMILES | melting point [°C]
COC(=O)c1ccc(OC)c(F)c1F | 66 to 68
O=C(CCCCC1CCSS1)NO (centres undefined) | 63 to 64
CC(=O)Nc1c(Cl)cc(C(C)=O)c2c1OCCO2 | 181 to 182
COCCCc1nc(C(F)F)ccc1C(=O)O | 86 to 87
O=C(Cl)c1cccnc1Nc1cccc(Cl)c1 | 112 to 115
CCCOc1ccc2c(O)c([N+](=O)[O-])c(=O)oc2c1 | 151 to 152
Cc1c2n(c3ccccc13)C(=O)C(Cc1c[nH]cn1)CC2 (centres undefined) | 156 to 157
CC1CC(n2ccc(-c3ccc(F)cc3)c2-c2ccncc2)CCN1 (centres undefined) | 173 to 175
COc1ccc2c(c1)c(CC(=O)OCC(=O)N(C)CCO[N+](=O)[O-])c(C)n2C(=O)c1ccc(Cl)cc1 | 118 to 122
CC(C)(C)NC(=O)NN1CC=CCC1 | 156
COCC1(CCCCCCCCCCCCC2(C(=O)NS(C)(=O)=O)CC2)CC1 | 44.6 to 45.3
O=C(O)Cn1cc(Cc2nc3c(F)c(F)cc(F)c3s2)c2ccccc21 | 177 to 178
Cc1cc(NCc2ccc(Oc3ccc4ncc([N+](=O)[O-])n4n3)c(OCC3CC3)c2)nc(C)n1 | 113 to 118
COc1cc(C(NC(=O)OC(C)(C)C)C(c2ccccc2)[N+](=O)[O-])ccc1Br (centres undefined) | 157 to 159
Cc1nnc(NCCN(C)C)nc1C | 46 to 49
CCCc1ccc(C=NN=Cc2ccc(F)cc2)cc1 | 70.5
COC(=O)c1cc2ccc(OCc3ccccc3)cc2oc1=O | 129 to 130
N#CN1CCC(c2nn(-c3ccccc3F)c3ccccc23)CC1 | 119 to 121
Fc1cc(F)c(F)c(-c2c(Cl)nc3ncnn3c2Cl)c1 | 191
Cc1sc2cc(C3=NCC4(CCNCC4)S3)[nH]c2c1N(C)S(=O)(=O)c1cccs1 | 196
Cc1cc(C(=O)NCc2ccc(Br)cc2F)c(OCC(=O)O)cc1F | 169
COc1ccc(C(=O)O)c(O)c1O | 234
CCCN=C1SC(=CC(=O)O)C(=O)N1CCC | 101 to 103
CC(C)(C)C(=O)C1=C(O)C(=O)N(c2ccc(-c3ccon3)cc2)C1C1CCCCC1 (centres undefined) | 259 to 260
C=CCOC(=O)OCc1ccc(C#N)cc1C(=O)O | 81 to 83

Continued, values first:

melting point [°C] | SMILES
160 to 163 | Cc1ccc(S(=O)(=O)OCCCCn2c3c(c4ccccc4c2=O)C(=O)c2ccccc2-3)cc1
144 to 145 | CCC(C)n1ncn(-c2ccc(N3CCN(c4ccc(O)cc4)CC3)cn2)c1=O (centres undefined)
170 to 175 | CCN(CC)c1ccc(NC(=O)N(C[C@H]2CC[C@H](CN(C(=O)Nc3ccc(N(CC)CC)cc3)C3CCCCCC3)CC2)C2CCCCCC2)cc1
68 to 70 | CC1(C2N=NC(=O)O2)CC1 (centres undefined)
76 to 77 | CC(CCOS(N)(=O)=O)Oc1ccccc1 (centres undefined)
204 to 206 | COc1ccc(CNc2cc(C(c3cc(F)ccc3F)S(=O)(=O)c3ccc(Cl)cc3)c(Cl)cn2)cc1OC (centres undefined)
116 to 118 | COCCN(CCOC)C(=O)c1cccc(NC(=O)Oc2ccccc2)c1
185 | CN1CCC(C(=O)O)(S(=O)(=O)c2ccc(Oc3ccc(Cl)cc3)cc2)CC1
160 to 162 | Cc1cccc(Nc2cc(Nc3ccc(OCC(=O)N(CCO)CCO)cc3)ncn2)c1
140 | Cc1cccc(-c2[nH]c(C(C)C)nc2-c2cccc(-c3ccc(C(=O)NC4CCOCC4)cc3)c2)n1
263 to 264 | CC1(C)Oc2ccc(C#N)cc2[C@@H](NC(=NC#N)N2CCCC2)[C@@H]1O (relative stereo)
211 to 212 | O=C(O)c1ccc(Cn2ccn(C3CCc4ccccc4C3)c2=S)cc1 (centres undefined)
99 to 100 | CC(C)(C)c1cc(CCc2ccccc2NC(=O)NC2CCN(Cc3cccc(F)c3)CC2)cc(C(C)(C)C)c1O
161 to 163 | CC(=O)Nc1nc(CCCl)cs1
142 | Cc1cccc(NC(=O)NCCC(=O)N(CC(=O)OC(C)(C)C)c2ccccc2)c1
169 to 170 | CCCc1c(O)c(C(C)=O)cc2c1N=C(C(=O)OC)CC2=O
166 | SCCNc1nc(-c2ccccc2)c2cc(Cl)ccc2n1
70 | CCOC(=O)CNc1ccc(OCc2ccccc2)cc1
300 to 305 | O=C(O)c1cccc(-n2c(=O)c3c(Cc4ccccc4)n[nH]c3c3cccnc32)c1
141 to 142 | COc1cnc2c(-c3cccc(C(F)(F)F)c3)ccc(C)c2n1
138 | O=C(c1ccc(F)cc1)C1CCN(CCCn2c(=O)[nH]c3cccc(Cl)c32)CC1
117 to 121 | CN(C)c1ccc(C(=O)OC2=C([C@H]3CC[C@H](c4ccc(Cl)cc4)CC3)C(=O)c3ccccc3C2=O)cc1
108 to 110 | CCOC(=O)c1cc(-c2nnn(C)n2)c(-c2ccc(F)cc2)s1
65.4 to 66.8 | COC(=O)c1ccc(OCCON=C(C)c2ccc(C(C)(C)C)cc2)cc1O

melting point [°C] | SMILES
155 | CC1C(=O)N(c2ccc(OCc3ccccc3)cc2)C(=S)N1c1ccccc1 (centres undefined)
63 to 65 | CCOC(=O)CCc1cc(Cl)c(Cl)cc1C(=O)CCCNC(C)=O
103 | COC(=O)Cc1sc(=O)[nH]c1COc1ccccc1
142 | CC1OC(N2CC(C)(I)C(=O)NC2=O)CC1O[Si](c1ccccc1)(c1ccccc1)C(C)(C)C (centres undefined)
235 to 236 | CC1=C(c2ccccc2)C(=O)c2ccccc2C1=O
159 to 160 | CCOC(=O)C(=COS(=O)(=O)c1ccc(C)cc1)c1ccccc1
133 to 134 | O=[N+]([O-])c1ccc(OC(c2ccc(F)cc2)(c2ccc(F)cc2)c2nccs2)cc1C(F)(F)F
87 | NC(=O)C(=O)CCCCl
102 to 104 | CCCCCCCCCCCCC1=C(O)C(=O)c2c(Cl)cccc2C1=O
242 to 244 | Cc1ccc(-c2c(-c3ccc(S(C)(=O)=O)cc3)cnn(-c3ccc(F)cc3)c2=O)cc1
112 to 114 | Cc1ccc(-n2cccc2-c2ccc(S(C)(=O)=O)cc2)cc1
133 to 135 | O=S(=O)(NN=C(Cl)c1cc(Cl)ccc1Cl)c1ccccc1
165 to 167 | CC(C)(CCCCOCCCCc1ccc(N2CCOCC2)cc1)NCC(O)c1ccc(O)c(NS(C)(=O)=O)c1 (centres undefined)
78 to 79 | Nc1ncc(Br)nc1OCC1CCCC1
63 to 64 | CC(C)(C#N)c1ccc(OCc2ccccc2)cc1
141 to 142 | CC(=O)Oc1ccc2cccc(OCC(=O)c3ccccc3)c2n1
124 to 125 | Cc1onc(-c2ccccc2)c1C(=O)NCCCN1CCN(c2ccccc2OCC(F)(F)F)CC1
114 to 116 | CC(C)(C#N)CN1C(=O)C2(OCCCO2)c2cc(Cl)ccc21
164 to 166 | O=C1C(=Cc2cc(Br)cs2)CCc2cc(OCCn3ccnc3)ccc21
204 to 205 | O=C(NC1CCCOC1)c1ccc2nonc2c1 (centres undefined)
277 | CCc1[nH]n(-c2c(Cl)cc(C(=O)O)cc2Cl)c2nc(Cc3ccc(OC)cc3)nc(=O)c1-2
229 to 230 | CCCCc1nc2c(N)nc3cc(-c4ccsc4)ccc3c2n1CC(C)C
220 to 227 | CC(CO)(CO)Nc1nc(SCc2cccc(F)c2F)nc2nc(N)cnc12
74.9 | COC(=O)C=C1CN2C(=O)N(c3cc(Cl)cc(Cl)c3)C(=O)C2(Cc2ccc(Br)cc2)C1 (centres undefined)
